# Experiments:
# Streptococcus pneumoniae = assay: Antibacterial activity against Streptococcus pneumoniae by microdilution broth method; type: functional
# Isoprenyl transferase = target: T1, Isoprenyl transferase (Streptococcus pneumoniae serotype 4 (strain ATCC BAA-334 / TIGR4), UniProt Q97SR4); assay: Inhibition of Streptococcus pneumoniae UPPS
# T1 sequence (Q97SR4 whole entry): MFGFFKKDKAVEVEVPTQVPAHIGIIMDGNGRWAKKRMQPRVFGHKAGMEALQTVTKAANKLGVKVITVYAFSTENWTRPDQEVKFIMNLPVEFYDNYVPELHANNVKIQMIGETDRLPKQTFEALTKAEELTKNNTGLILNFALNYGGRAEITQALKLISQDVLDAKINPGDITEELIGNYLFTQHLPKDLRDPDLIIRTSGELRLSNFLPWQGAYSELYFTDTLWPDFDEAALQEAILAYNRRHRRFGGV
# Enterococcus faecalis = assay: Antibacterial activity against Enterococcus faecalis by microdilution broth method; type: functional
# Staphylococcus aureus = assay: Antibacterial activity against Staphylococcus aureus by microdilution broth method; type: functional
# [1] = target: T2, Farnesyl pyrophosphate synthase (Homo sapiens, UniProt P14324); assay: Inhibition of human FPPS
# T2 sequence (P14324 whole entry): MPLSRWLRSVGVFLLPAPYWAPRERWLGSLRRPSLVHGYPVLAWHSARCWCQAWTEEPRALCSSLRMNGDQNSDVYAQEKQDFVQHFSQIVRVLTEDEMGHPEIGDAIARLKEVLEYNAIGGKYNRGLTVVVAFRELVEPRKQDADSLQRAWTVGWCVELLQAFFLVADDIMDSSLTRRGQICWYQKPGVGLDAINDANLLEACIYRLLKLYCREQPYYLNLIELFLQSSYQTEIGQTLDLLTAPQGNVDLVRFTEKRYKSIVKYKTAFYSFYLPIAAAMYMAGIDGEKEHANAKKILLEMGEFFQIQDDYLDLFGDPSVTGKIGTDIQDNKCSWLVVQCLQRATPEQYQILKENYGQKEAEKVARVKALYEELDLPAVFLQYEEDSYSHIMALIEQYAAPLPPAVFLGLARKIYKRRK
# [2] = Dissociation constant, pKa of the compound; type: physicochemical
SMILES,MIC (Streptococcus pneumoniae) [µg/mL],IC50 (Isoprenyl transferase) [nM],MIC (Enterococcus faecalis) [µg/mL],MIC (Staphylococcus aureus) [µg/mL],IC50 [1] [nM],pKa [2]
O=C(Nc1ccc(Cl)cc1)C1=C(O)C(c2ccccc2)OC1=O (centres undefined),64,24000,> 64,> 64,> 50000,
O=C(Nc1ccc(Oc2ccccc2)cc1)C1=C(O)CC(Cc2ccccc2)NC1=O (centres undefined),32,110,64,16,> 50000,6.5
O=C(Nc1ccc(N2CCCCC2)cc1)C1=C(O)C(CCc2ccccc2)NC1=O (centres undefined),4,800,8,4,> 50000,3
O=C1NCC(Cc2ccccc2)C(O)=C1C(=O)Nc1ccc(-n2ccnc2)cc1 (centres undefined),32,8800,4,64,,
O=C(Nc1ccc(-c2ccccc2)cc1)C1=C(O)C(Cc2ccccc2)OC1=O (centres undefined),4,1100,32,> 128,,
O=C(NC1CCCCC1)C1=C(O)CC(Cc2ccccc2)NC1=O (centres undefined),64,70,64,64,> 50000,6.5
O=C(Nc1ccc(C2CCCCC2)cc1)C1=C(O)C[C@@H](c2ccccc2)NC1=O,4,70,64,4,> 100000,6.5
CC(C)CC1NC(=O)C(C(=O)Nc2ccc(C3CCCCC3)cc2)=C1O (centres undefined),1,1300,2,0.5,> 50000,3
O=C(Nc1ccc(C2CCCCC2)cc1)C1=C(O)C(c2ccccc2)NC1=O (centres undefined),2,3500,4,2,> 100000,3
O=C(Nc1ccc(C2CCCCC2)cc1)C1=C(O)CC(Cc2ccccc2)NC1=O (centres undefined),8,40,64,32,> 50000,6.5
O=C(Nc1ccc(C(F)(F)F)nc1)C1=C(O)CC(Cc2ccccc2)NC1=O (centres undefined),8,140,16,16,> 50000,6.5
O=C(NC1CCCCC1)C1=C(O)C(CCc2ccccc2)NC1=O (centres undefined),64,35000,32,32,,3
O=C(Nc1ccc(C2CCCCC2)cc1)C1=C(O)C(Cc2ccccc2)NC1=O (centres undefined),1,1800,8,0.5,> 100000,3
O=C(Nc1ccc(C2CCCCC2)cc1)C1=C(O)CC(C2CCCCC2)NC1=O (centres undefined),> 32,60,32,> 32,,6.5
O=C(Nc1ccc(C2CCCCC2)cc1)C1=C(O)C(Cc2ncc[nH]2)NC1=O (centres undefined),8,4200,16,16,,3

# Results, then the molecule that gave them:
MIC (Streptococcus pneumoniae) [µg/mL],IC50 (Isoprenyl transferase) [nM],MIC (Enterococcus faecalis) [µg/mL],MIC (Staphylococcus aureus) [µg/mL],IC50 [1] [nM],pKa [2],SMILES
1,500,32,64,> 50000,,O=C(Nc1ccc(C2CCCCC2)cc1)C1=C(O)C(Cc2ccccc2)OC1=O (centres undefined)
16,8500,16,32,,6.5,O=C(Nc1ccc(S(=O)(=O)c2ccccc2)cc1)C1=C(O)CC(Cc2ccccc2)NC1=O (centres undefined)
,1100,,,,6.5,O=C(Nc1ccc(Nc2ccccc2)cc1)C1=C(O)CC(Cc2ccccc2)NC1=O (centres undefined)
16,2100,4,16,,,O=C1NCC(CC2CCCCC2)C(O)=C1C(=O)Nc1ccc(-n2ccnc2)cc1 (centres undefined)
,> 50000,,,,3,COCC1NC(=O)C(C(=O)Nc2ccc(C3CCCCC3)cc2)=C1O (centres undefined)
2,120,16,4,> 100000,3,O=C(Nc1ccc(-c2ccccc2)cc1)C1=C(O)C(CCc2ccccc2)NC1=O (centres undefined)
,300,1,0.5,8000,3,O=C(Nc1ccc(C2CCCCC2)cc1)C1=C(O)CN(Cc2ccccc2)C1=O
16,2500,64,16,,3,O=C(Nc1ccc(F)cc1)C1=C(O)C(CCc2ccccc2)NC1=O (centres undefined)
4,200,8,4,> 50000,6.5,O=C(Nc1ccc(C2CCCCC2)cc1)C1=C(O)CC(c2ccccc2)NC1=O (centres undefined)
4,180,64,4,> 50000,6.5,O=C(Nc1ccc(C2CCCCC2)cc1)C1=C(O)C[C@H](c2ccccc2)NC1=O
1,160,4,4,> 100000,3,O=C(Nc1ccc(C2CCCCC2)cc1)C1=C(O)C(CCc2ccccc2)NC1=O (centres undefined)
,58000,,,,3,O=C1NCC(O)=C1C(=O)Nc1ccc(C2CCCCC2)cc1
32,630,32,32,,6.5,O=C(Nc1ccc(-n2ccnc2)cc1)C1=C(O)CC(Cc2ccccc2)NC1=O (centres undefined)
,19000,,,,3,CCCCCCOc1ccc(NC(=O)C2=C(O)C(Cc3ccccc3)NC2=O)cc1 (centres undefined)
64,110,64,64,> 50000,6.5,O=C(Nc1ccc(N2CCCCC2)cc1)C1=C(O)CC(Cc2ccccc2)NC1=O (centres undefined)
4,200,64,> 64,,6.5,CC(C)CC1CC(O)=C(C(=O)Nc2ccc(C3CCCCC3)cc2)C(=O)N1 (centres undefined)
4,2000,32,32,> 50000,,O=C(Nc1cc(Cl)cc(Cl)c1)C1=C(O)C(c2ccccc2)OC1=O (centres undefined)

# From ChEMBL document CHEMBL1142343, “Design and structure-activity relationships of potent and selective inhibitors of undecaprenyl pyrophosphate synthase (UPPS): tetramic, tetronic acids and dihydropyridin-2-ones” (Bioorg Med Chem Lett, 2008)
